Data: patent US6867236B1, “Method of preventing of delaying the onset and progression of Alzheimer's disease and related disorders” (Duke University, priority 1994, dated 2005)

Test system: Alzheimer's disease
Assay: Case-control study of sibships at high risk: odds ratios for age-adjusted risk of Alzheimer's disease with prior drug exposure (Cox proportional hazards models)
Type: in vivo, human
Details: for Odds ratio for risk of Alzheimer's disease: COL + AU, simple odds ratio; for effect on risk of Alzheimer's disease in words: drug alone, orthogonal comparison with NSAIDs
Experimental: Briefly, doubly affected sib pairs with Alzheimer's disease onset ages that differed by at least 3 years were studied, as were disease-discordant siblings whose unaffected sib(s) had survived at least 3 years beyond the onset age of the affected sib. Premorbid exposures to steroids, NSAIDs and other treatments were assessed for 186 subjects (91% response rate) by focused retrospective interviews using appropriate blinding and multiple informants when possible. Survival analysis methods were used to compare age-adjusted risk of Alzheimer's disease among sibs who had been exposed or unexposed, before onset, to glucocorticoids, aspirin, non-aspirin NSAIDs, and histamine H2 receptor blockers. […] The odds ratios for steroids, aspirin and non-aspirin NSAIDs fell within the related confidence interval from the prior twin study (Breitner, Neurology 44:227 (1994)).
Doubly affected sib pairs with Alzheimer's disease onset ages that differed by at least 3 years were studied, as were disease-discordant siblings whose unaffected sib(s) had survived at least 3 years beyond the onset age of the affected sib. Diagnoses and ages at onset of Alzheimer's disease were established by consideration of all relevant data, including extensive longitudinal observation, laboratory testing, and autopsy confirmation when available. Arthritis, peptic ulcer disease, and other non-neurological conditions were not considered when making these diagnoses. Subjects or their collateral informants received a letter, followed by a structured telephone interview, that investigated several common medical conditions (arthritis, diabetes, peptic ulcer disease) and treatments (glucocorticoids, nonsteroidal anti-inflammatories, including aspirin, acetaminophen, narcotic analgesics, insulin and oral hypoglycemic drugs, and histamine H2 blocking agents). The interview also sought timing and duration of exposure. The interviewers generally knew which subjects had Alzheimer's disease but were blinded to early- or late-affected status. The respondents were not made aware of the hypothesis under investigation. Collateral informants supplied data for the 107 subjects who had developed Alzheimer's disease. Collateral information was also sought for the remaining subjects; however, it is was necessary to rely on autobiographical data from 20 (26%).
Like dizygous twins, siblings share 50% of their genetic make-up on average. The relation of Alzheimer's disease onset and prior use of anti-inflammatory drugs was therefore studied in a sample of 186 sibs from 45 pedigrees ascertained for genetic linkage studies of late onset Alzheimer's disease (Pericak-Vance et al, Am. J. Hum. Genet. 48:1034 (1991)). The selected sibs were members of onset-discordant doubly affected pairs or disease-discordant pairs meeting criteria described above.
These differences and the association of Alzheimer's disease with the remaining exposures were investigated using Cox proportional hazards models (Cox, J. Roy. Stat. Soc. (Series B) 34:248-275 (1972)) in which the sample was first stratified by sibship. Table 2 reports odds ratios (o.r), the customary measure of risk associated with an exposure in case-control work. The o.r. is ordinarily calculated as the ratio of proportions exposed versus unexposed in the affected and unaffected groups; for conditions like Alzheimer's disease with age-dependent expression (Breitner et al, Am. J. Epidemiol. 128:536-548 (1988)), the o.r. is preferably calculated using proportional hazards or similar models which consider subjects' current age or age at death (i.e., censoring age), or age at onset of Alzheimer's disease. An o.r. of less than 1 implies reduced risk of disease with exposure. […] The apparent effect of both aspirin and NSAIDs increased with duration of exposure; the o.r. with use of NSAIDs for >1 yr. […]

[1] = Table 2, source of data COL + AU (collateral + autobiographical), stratified by sibship
[2] = Table 2, source of data COL only (collateral informants), stratified by sibship, exposure >=1 month
[3] = Table 3, orthogonal comparison, not stratified by sibship, no NSAIDs

SMILES | Odds ratio for risk of Alzheimer's disease (Table 2, exposed 1-12 mo.) | Odds ratio for risk of Alzheimer's disease (Table 2, exposed >1 yr.) | Odds ratio for age-adjusted risk of Alzheimer's disease [1] | Odds ratio for age-adjusted risk of Alzheimer's disease [2] | Odds ratio for age-adjusted risk of Alzheimer's disease [3] | effect on risk of Alzheimer's disease in words | estimated odds ratios (o.r.), age-adjusted risk of Alzheimer's disease (sibs exposed or unexposed before onset)
CC(=O)Oc1ccccc1C(=O)O [Aspirin] | 0.625 | 0.369 | 0.343 | 0.349 | 0.508 | weak but similar effect to NSAIDs | 0.35
CC(=O)Nc1ccc(O)cc1 [Acetaminophen] | – | – | 0.104 | 0.157 | 0.192 | comparable but statistically inconclusive effect | –
